Our source for the Ki values is patent publication US20100093721A1, “PHENYL AND HETEROARYL SUBSTITUTED THIENO[2,3-d]PYRIMIDINES AND THEIR USE AS ADENOSINE A2a RECEPTOR ANTAGONISTS” (priority 2008, published 2010).

The target in experiment [1] is T1, human adenosine A1 receptor (Homo sapiens, UniProt P30542).
T1 construct: expressed in transfected cells; host or cells: CHO-K1
T1 sequence (P30542 1-326): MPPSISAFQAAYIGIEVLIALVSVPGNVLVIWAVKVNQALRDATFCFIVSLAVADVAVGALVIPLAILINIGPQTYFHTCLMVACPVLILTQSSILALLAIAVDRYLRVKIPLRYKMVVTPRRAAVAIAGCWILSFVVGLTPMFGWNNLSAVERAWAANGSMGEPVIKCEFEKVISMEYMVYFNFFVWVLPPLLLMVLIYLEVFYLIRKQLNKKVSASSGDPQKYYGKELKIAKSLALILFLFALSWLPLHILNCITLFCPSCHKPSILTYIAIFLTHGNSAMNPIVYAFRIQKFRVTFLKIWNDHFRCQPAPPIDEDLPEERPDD
The experiment is described as follows: Adenosine A1 Receptor Functional Assay (A1GAL2). It counts as cell-based. The settings on record: CHO-K1 cells, cAMP inducible beta-galactosidase reporter, 4 nM r-PIA/1 uM Forskolin challenge. How it is done:
Adenosine A1 Receptor Functional Assay (A1GAL2)
(§1) To initiate the functional assay, cryopreserved CHO-K1 cells overexpressing the human adenosine A1 receptor and containing a cAMP inducible beta-galactosidase reporter gene were thawed, centrifuged, DMSO containing media removed, and then seeded with fresh culture media into clear 384-well tissue culture treated plates (BD #353961) at a concentration of 10K cells/well. Prior to assay, these plates were cultured for two days at 37° C., 5% CO2, 90% Rh. On the day of the functional assay, culture media was removed and replaced with 45 uL assay medium (Hams/F-12 Modified (Mediatech #10-080CV) supplemented w/0.1% BSA). Test compounds were diluted and 11 point curves created at a 1000× concentration in 100% DMSO. Immediately after addition of assay media to the cell plates, 50 nL of the appropriate test compound antagonist or agonist control curves were added to cell plates using a Cartesian Hummingbird. Compound curves were allowed to incubate at room temperature on cell plates for approximately 15 minutes before addition of a 4 nM r-PIA (Sigma P4532)/1 uM Forskolin (Sigma F3917) agonist challenge (5 uL volume). A control curve of r-PIA in 1 uM Forskolin, a DMSO/Media control, and a single dose of Forskolin were also included on each plate. After additions, cell plates were allowed to incubate at 37° C., 5% CO2, 90% Rh for 5.5-6 hours. After incubation, media was removed, and cell plates were washed 1×50 uL with DPBS w/o Ca & Mg (Mediatech 21-031-CV). Into dry wells, 20 uL of 1× Reporter Lysis Buffer (Promega E3971 (diluted in dH2O from 5× stock)) was added to each well and plates frozen at −20° C. overnight. For β-galactosidase enzyme calorimetric assay, plates were thawed out at room temperature and 20 μL 2× assay buffer (Promega) was added to each well. Color was allowed to develop at 37° C., 5% CO2, 90% Rh for 1-1.5 h or until reasonable signal appeared. The calorimetric reaction was stopped with the addition of 60 μL/well 1M sodium carbonate. Plates were counted at 405 nm on a SpectraMax Microplate Reader (Molecular Devices). Data was analyzed in Microsoft Excel and IC/EC50 curves were fit using a standardized macro.

Experiment [2] has as its target T2, human A2a adenosine receptor (Homo sapiens, UniProt P29274).
T2 construct: purchased PerkinElmer RB-HA2a; host or cells: HEK293 plasma membranes
In words: Ligand Binding Assay for Adenosine A2a Receptor. The settings on record: HEK293 plasma membrane, radioligand [3H]CGS21680; read-out: A2A-B Ki. How it is done:
Ligand Binding Assay for Adenosine A2a Receptor
Ligand binding assay of adenosine A2a receptor was performed using plasma membrane of HEK293 cells containing human A2a adenosine receptor (PerkinElmer, RB-HA2a) and radioligand [^3H]CGS21680 (PerkinElmer, NET1021). Assay was set up in 96-well polypropylene plate in total volume of 200 μL by sequentially adding 20 μL 1:20 diluted membrane, 130 μL assay buffer (50 mM Tris.HCl, pH7.4 10 mM MgCl2, 1 mM EDTA) containing [^3H] CGS21680, 50 μL diluted compound (4×) or vehicle control in assay buffer. Nonspecific binding was determined by […] NECA. Reaction was carried out at room temperature for 2 hours before filtering through 96-well GF/C filter plate pre-soaked in 50 mM Tris.HCl, pH7.4 containing 0.3% polyethylenimine. Plates were then washed 5 times with cold 50 mM Tris.HCl, pH7.4, dried and sealed at the bottom. Microscintillation fluid 30 μL was added to each well and the top sealed. Plates were counted on Packard Topcount for [^3H]. Data was analyzed in Microsoft Excel and GraphPad Prism programs. (Varani, K.; Gessi, S.; Dalpiaz, A.; Borea, P. A. British Journal of Pharmacology, 1996, 117, 1693)

Experiment [3] concerns the target T3, human adenosine A2a receptor (Homo sapiens, UniProt P29274).
T3 construct: expressed in transfected cells; host or cells: CHO-K1
In words: Adenosine A2a Receptor Functional Assay (A2AGAL2). It counts as cell-based. To be noted: CHO-K1 cells, cAMP inducible beta-galactosidase reporter, 15 nM NECA agonist challenge. The procedure:
Adenosine A2a Receptor Functional Assay (A2AGAL2)
as §1, with “Prior” for “To initiate the functional assay, cryopreserved CHO-K1 cells overexpressing the human adenosine A1 receptor and containing a cAMP inducible beta-galactosidase reporter gene were thawed, centrifuged, DMSO containing media removed, and then seeded with fresh culture media into clear 384-well tissue culture treated plates (BD #353961) at a concentration of 10K cells/well. Prior”, “Compound curves were allowed to incubate at room temperature on cell plates for approximately 15 minutes before addition of a 4 nM r-PIA (Sigma P4532)/1 uM Forskolin (Sigma F3917) agonist challenge (5 uL volume).” left out, “NECA,” for “r-PIA in 1 uM Forskolin,”, “Forskolin (Sigma F3917)” for “Forskolin”, “colorimetric” for “calorimetric”

T3 sequence (P29274 whole entry): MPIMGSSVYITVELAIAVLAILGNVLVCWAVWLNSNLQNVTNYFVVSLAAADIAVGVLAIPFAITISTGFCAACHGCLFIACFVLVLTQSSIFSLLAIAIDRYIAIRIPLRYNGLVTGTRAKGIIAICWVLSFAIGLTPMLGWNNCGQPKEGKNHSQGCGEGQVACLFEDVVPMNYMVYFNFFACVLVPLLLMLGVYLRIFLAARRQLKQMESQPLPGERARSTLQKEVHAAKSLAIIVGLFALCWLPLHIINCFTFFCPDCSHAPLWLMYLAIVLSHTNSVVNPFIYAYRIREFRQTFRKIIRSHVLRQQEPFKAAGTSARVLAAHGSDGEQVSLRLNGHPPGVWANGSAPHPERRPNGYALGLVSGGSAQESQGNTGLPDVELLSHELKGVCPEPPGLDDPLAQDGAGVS
T2 sequence (P29274 whole entry): as above

With `Nc1nc(-c2ccc(C(F)F)o2)nc2sc(Cc3ccccc3)cc12` [Example 43, 6-Benzyl-2-(5-difluoromethyl-furan-2-yl)-thieno[2,3-d]pyrimidin-4-ylamine], the inhibition constant Ki (as a rule, the equilibrium dissociation constant of an inhibitor or competing ligand from its target) in experiment [1] was determined as 3000 nM; in experiment [2], 37.5 nM; in experiment [3] it was 25.2 nM.
Take `Cc1ccc(-c2nc(N)c3cc(Cc4ccccc4)sc3n2)o1` [Example 1, 6-Benzyl-2-(5-methyl-furan-2-yl)-thieno[2,3-d]pyrimidin-4-ylamine]: the Ki is 279 nM in experiment [1], 11.9 nM in experiment [2] and 11 nM in experiment [3].
Consider `Cc1ccc(-c2nc(N)c3cc(C(=O)c4cccc(CN5CCOCC5)c4)sc3n2)o1` [Example 5, [4-Amino-2-(5-methyl-furan-2-yl)-thieno[2,3-d]pyrimidin-6-yl]-(3-morpholin-4-ylmethyl-phenyl)-methanone], for which the Ki was 505 nM in experiment [1], 100 nM in experiment [2] and 230 nM in experiment [3].
Taken in the same sequence, the figures for `Cc1ccc(-c2nc(N)c3cc(CCc4ccccc4)sc3n2)o1` [Example 22, 2-(5-Methyl-furan-2-yl)-6-phenethyl-thieno[2,3-d]pyrimidin-4-ylamine] were 2760 nM, 50 nM and 189 nM.
In the case of `COc1ccccc1Cc1cc2c(N)nc(-c3ccc(C)o3)nc2s1` [Example 12, 6-(2-Methoxy-benzyl)-2-(5-methyl-furan-2-yl)-thieno[2,3-d]pyrimidin-4-ylamine], the Ki was 115 nM in experiment [1], 51 nM in experiment [2] and 10.1 nM in experiment [3].
Taken in the same sequence, the figures for `CC(c1ccccc1)c1cc2c(N)nc(-c3ncco3)nc2s1` (racemic) [Example 21, (±)-2-Oxazol-2-yl-6-(1-phenyl-ethyl)-thieno[2,3-d]pyrimidin-4-ylamine] were 1180 nM, 72.7 nM and 19.4 nM.
As for `Cc1ccc(-c2nc(N)c3cc(CCc4ccc(F)cc4)sc3n2)o1` [Example 29, 6-[2-(4-Fluoro-phenyl)-ethyl]-2-(5-methyl-furan-2-yl)-thieno[2,3-d]pyrimidin-4-ylamine], the results for the Ki in experiment [1], in experiment [2] and in experiment [3] were 1570 nM, 6.61 nM and 61.2 nM, respectively.
Consider `Cc1ccc(-c2nc(N)c3cc(/C=C/c4ccc(F)cc4)sc3n2)o1` [Example 30, 6-[2-(4-Fluoro-phenyl)-vinyl]-2-(5-methyl-furan-2-yl)-thieno[2,3-d]pyrimidin-4-ylamine], for which the inhibition constant (Ki) worked out at 20200 nM in experiment [1], 173 nM in experiment [2] and 938 nM in experiment [3].
Turning to `Nc1nc(-c2ccc(C(F)F)o2)nc2sc(C(O)c3ccccc3)cc12` (stereo not drawn) [Example 41, [4-Amino-2-(5-difluoromethyl-furan-2-yl)-thieno[2,3-d]pyrimidin-6-yl]-phenyl-methanol], the Ki in experiment [1] turned out to be 223 nM; in experiment [2] it was 17.9 nM; in experiment [3], 11.3 nM.
Taken in the same sequence, the figures for `Cc1ccc(-c2nc(N)c3cc(/C=C/c4ccccc4)sc3n2)o1` [Example 33, 2-(5-Methyl-furan-2-yl)-6-styryl-thieno[2,3-d]pyrimidin-4-ylamine] were 3340 nM, 26 nM and 236 nM.
